From patent US8293528B2, “Peptide compositions and their use in particular in the preparation of pharmaceutical compositions active against the hepatitis C virus” (priority 2002, dated 2012)
Several values for one entry are separate records, joined by “and”; a condition that tells them apart may be missing. Identical values can stand only once.

What was measured:
[1] = test system: blood cells from 3 patients infected by the hepatitis C virus of genotype 1 and having an HLA of type HLA-A2+; settings: ELISPOT, 48 hours, positive if more than 20 spots per well
Experimental: The ability of blood cells from 3 patients infected by the hepatitis C virus of genotype 1 and having an HLA of type HLA-A2+ to produce gamma-interferon cytokines and interleukin-10, in response to two peptides predicted by software developed by bioMerieux (Centre d'Immunologie de Pierre Fabre) to bind to the HLA-A2 molecule was tested.
The assay of these cytokines reflects the ability of the peptides to induce immune responses to cell mediation, either of type 1 (gamma interferon), or of type 2 (interleukin-10)
After 48 hours of incubation at 37° C., a period during which the cells specific to the peptides will locally produce cytokines which will bind to the specific antibodies, anti-gamma interferon or anti-interleukin-10 antibodies, alkaline phosphatase coupled to avidine and the alkaline phosphatase substrate (NBT/BCIP) were added.
The violet-blue spots, which represent each gamma-interferon or interleukin-10-producing cell were counted, using Zeiss's ELISPOT automated reader (KS Elispot) and only considered positive when the number of spots per well was greater than 20.

[2] = test system: Mice transgenic for the molecule HLA.A2.1; assay: ELISPOT after immunization of transgenic mice with predicted epitopes; format: in vivo; settings: three individual mice; two injections of epitope 60 μM + T-helper peptide in IFA; two weeks after last immunization
Experimental: Mice transgenic for the molecule HLA.A2.1 and devoid of murine class 1 molecules (Pascolo S., et al., 1997, J. Exp Med., 185: 2043-2051) were immunized with the FLL and ILA epitopes predicted as being class I epitopes restricted by the molecule HLA.A2.1.
In order to do this, the mice were immunized in the base of their tails with a peptide mixture containing one of the above epitopes (60 μM) and the T-helper peptide (Lone, Y. C. et al., (1998), J. Immunother. 21:283-294) (60 μM) emulsified in incomplete Freund's adjuvant (Sigma St Louis, Mo.). The mice received two injections with an interval of two weeks and the immune responses were analyzed two weeks after the last immunization as indicated in Example 1 (Elispot).

HLA-A2.1-transgenic mice = assay: CTL test after immunization with peptides/compositions/epitopes; format: in vivo; settings: FIG. 10; 18 nmoles of D peptide versus 60 nmoles of ALY epitope, ALY epitope as target
Experimental: In order to do this, 2 sub-cutaneous injections were administered into the base of the tail of each mouse, with an interval of 15 days, of a mixture containing 18 nmoles of peptide of the invention and 18 nmoles of the HBV core helper peptide in incomplete Freund's adjuvant (IFA, Brinster et al., Hepatology 2001) or containing 60 nmoles of epitope of the invention and 60 nmoles of the helper peptide in IFA.
The control mice received only the helper peptide in IFA.
Fifteen days after the 2nd injection, the cell response was analyzed by isolating the spleen cells (splenocytes) of mice and a CTL test and an ELISPOT test were carried out as follows:
For the CTL test, these splenocytes were cultured in 24-well plates in the presence of 5 μM of the peptide or epitope of interest and 10 U of recombinant murine interleukin-2 (Brinster et al., Hepatology 2001) per ml in alpha minimum essential medium (αMEM) for 5 days. […] The specific cytotoxic activity of the effective cells was determined by measuring, after 4 hours of incubation with the target cells, the Cr^51 released following the lysis of the target cells using a γ-Cobra II (Packard, Rungis, France) counting device. The spontaneous and maximum release from wells containing either the medium alone, or the lysis buffer (HCl 1N) were determined. […]

| Substance | production of gamma interferon [1] | production of interleukin-10 [1] | Number of spots/10^6 cells (gamma-interferon-producing cells) [2] | lysis effectiveness (HLA-A2.1-transgenic mice) |
| --- | --- | --- | --- | --- |
| LLGCIITSL | significant production of gamma interferon in 2 of the 3 patients | significant production |  |  |
| FLATCVNGV | little if any production | little if any production |  |  |
| ILAGYAGAGV |  |  | 5 spots/10^6 cells and 2 spots/10^6 cells and 0 spots/10^6 cells |  |
| D peptide: D peptide of sequence SEQ ID NO: 176, in NS5b between positions 2573 and 2601 of the viral polyprotein |  |  |  | identical lysis effectiveness |
